Experimental data published in patent US4464354A, “(3,4-c)-Pyrido psoralens, process of preparation, application in cosmetology and therapeutics, and cosmetological and pharmaceutical composition with them” (Institut National de la Sante et de la Recherche Medicale, priority 1982, dated 1984).
Entries after “also recorded” stand apart in the source; their conditions may differ. Where two headings read alike, the source gives them in different places.

Key:
[1] = mice, after exposure to light in the near ultraviolet range around 365 nm; cited from earlier work
DNA [2] = settings: background statement; cited from earlier work
[3] = background statement, cited from earlier work
DNA [4] = assay: formation of cross-links in DNA (general statements); assay type: biochemical; settings: from induction of cytoplasmic and nuclear mutations
[5] = spectroscopic absorption properties; assay type: physicochemical; settings: compared with psoralen
Description: Compounds 1a and 1b have similar spectroscopic properties which differ markedly with respect to those of psoralen.

[6] = tested on: DNA of cells of the wild type; assay: direct biochemical verification of cross-linking in DNA of cells treated and irradiated at 365 nm; assay type: cell-based, yeast; settings: for form of DNA after renaturation (cross-links): 10^-5 M, 365 nm, two doses (30% and 5% survival rate)
Description: Indeed, DNA of cells of the wild type were extracted immediately after treatment with products 1a, 1b at a concentration of 10^-5 M and irradiation with two doses of radiation at 365 nm (30% and 5% survival rate). […] If the DNA contains cross-links it renatures itself and is found in the double chain form separable by gradient density from single chain DNA.

[7] = tested on: Saccharomyces cerevisiae yeast; assay: induction of lethal effects in yeast with 365 nm irradiation (UVA); assay type: cell-based; settings: for photodynamic activity (oxygen dependent) on induction of lethal damages: yeast
Procedure: (§1) This photobiological activity has in effect been defined by the induction of lethal effects, the induction of "small colony" cytoplasmic mutations (damage in the mitochondrial DNA) and the induction of nuclear mutations (reverse and forward). The experiments were conducted in the customary manner in conformity with the following references:
Thus, the dose of UVA must be between 2.5 and 5 times weaker in the case of compounds 1a and 1b than in the case of 8-MOP to attain the same survival rate.

DNA [8] = assay: photoaffinity for DNA in vivo; assay type: cell-based, yeast
mitochondrial DNA = assay: induction of "small colony" cytoplasmic mutations; assay type: cell-based, Saccharomyces cerevisiae; settings: in 10% of the survivors
Procedure: as §1
If the induction of cytoplasmic mutations is considered as a function of the survivors, the compounds 1a and 1b which are monofunctional derivatives of psoralen, show in 10% of the survivors a rate of induction of cytoplasmic mutation greater than 50%.

[9] = tested on: haploid strain of Saccharomyces cerevisiae yeast; assay: induction of nuclear mutations: His+ reversions; assay type: cell-based; settings: 5×10^-6 M, same survivor rate
Procedure: as §1
The induction of nuclear mutations (reversions and "forward" mutations) has been determined according to procedures described in the above-mentioned articles.

[10] = tested on: Saccharomyces cerevisiae yeast; assay: induction of forward mutations (resistance to canavanine); assay type: cell-based
Procedure: as §1, with “references: […]” for “references:”

synthesis of DNA = assay: photosensitizer effect on DNA synthesis in human fibroblasts; assay type: cell-based; settings: UVA 365 nm
Description: (§2) (F. Bordin, F. Baccichetti and L. Musajo, Experientia 28, 148 (1972)).
(§3) The cells cultivated in Petri dishes having a minimum Eagle medium with 10% embryonic calf serum were marked by precursors which were specific to the exponential phase of growth. The rates of synthesis were estimated by measuring the incorporation of the radioactive precursors in the acid-precipitable material (see S. Nocentini, Biochim. Biophys., Acta 521, 160 (1978)).

synthesis of RNA = assay: photosensitizer effect on RNA synthesis in human fibroblasts; assay type: cell-based; settings: UVA 365 nm
Description: as §2, §3

[11] = tested on: V79 chinese hamster cells; assay: antiproliferatory effect: inhibition of colony formation of V79 cells; assay type: cell-based; settings: 5×10^-6 M
Procedure: The photobiological activity of the two monofunctional componds 1a and 1b have been studied in mammalian cells in vitro in order to determine their antiproliferatory effect.
A diploid strain of V79 chinese hamster cells were used.
The action of the compounds on cell survival (i.e. the antiproliferatory effect) was determined by measuring their power to inhibit the capacity of cells to form colonies. The technique used is that described by C.

normal human skin = assay: erythema test on normal human skin (forearm); assay type: in vivo; settings: for erythematogenicity (conclusion): in vivo
Procedure: The clinical and therapeutic activity of compounds 1a and 1b has been also measured on human skin. 10 mg of compounds 1a and 1b were diluted in 2 g of a purified lanolin commercially available under the name ROC hydrocerine which was made liquid by heating to 60° C. This local preparation was first tested on normal human skin (of the forearm). An amount of 10 micrograms/cm2 of products 1a and 1b was applied to a circular cutaneous surface 3 cm in diameter. The two products were left on the skin for 2 hours to insure a sufficient cutaneous penetration. […] The same experiment was repeated a second time with irradiation of 20 J/cm2 through a glass plate in order to filter out all the ultraviolet B radiation. […] This erythema, slightly apparent, continued for 18 days. […] The […] result of the reflective photoplethysmograph were totally identical for products 1a and 1b. […] The […] only appeared in doses of irradiation where are twice that customarily used in a therapeutic treatment.

psoriatic plaque [12] = assay: therapeutic test on psoriatic plaque, products 1a and 1b; assay type: in vivo, human
Procedure: 10 mg of compounds 1a and 1b were diluted in 2 g of a purified lanolin commercially available under the name ROC hydrocerine which was made liquid by heating to 60° C. Products 1a and 1b have also been tested in the same excipient on a high inflammatory psoriatic plaque. These two products were applied to surfaces having a 3 cm diameter. On a third surface the excipient alone was applied. […] The products and the lanolin alone were applied 2 hours before irradiation. […] This whitening was practically as fast in the zones treated with products 1a and 1b. The zone treated with lanolin alone remained unchanged.

psoriatic plaque [13] = assay: therapeutic test comparing 8-methoxypsoralen and product 1b; assay type: in vivo, human; settings: 10^-2 M; for deterioration after end of treatment: one patient without further treatment
Description: The concentrations of 8-MOP and product 1b were 10^-2 M in the same excipient as that used in the previous therapeutic test. Both preparations were applied on two rounded zones 3 cm in diameter, located on the same psoriatic plaque and were irradiated according to the same procedure of gradually increasing ultraviolet irradiation until a maximum of 10 J/cm2 per treatment.

normal skin = assay: pigmentogenic properties on normal skin; assay type: in vivo, human; settings: 0.5%
Description: The pigmentogenic properties of products 1a and 1b have been tested on normal skin at a concentration of 0.5%.

[14] = mutagenicity (general statements)
yeast mutant pso2 = assay: sensitivity of yeast mutant pso2 versus wild type to photo-addition
psoriasis = settings: human, in vivo; cited from earlier work
[15] = 10 micrograms/cm2, UVA 20 J/cm2
[16] = 30 micrograms/cm2, by the tenth treatment
[17] = 30 micrograms/cm2, from the fourth treatment

## COc1c2ccoc2cc2oc(=O)ccc12 [5-methoxypsoralen]
[1]
  carcinogenicity: carcinogenic in mice
DNA [2]
  capability of forming cross-links in DNA: capable of forming cross-links in the DNA
[3]
  mutagenic activity and carcinogenesis in animals: high mutagenic activity and carcinogenesis in animals
[3]; listed as 5-methoxy psoralen
  mutagenic activity and carcinogenesis in animals: mutagenic

## Cc1c2occc2cc2c1oc(=O)c1cnccc12 [Compound 1b, Methyl-7-pyrido (3,4-c) furo (3,2-g) coumarin]
DNA [4]
  formation of cross-links in the DNA (conclusion): incapable of forming cross-links in the DNA
[5]
  coefficient of molecular absorption at 365 nm: notably a higher coefficient of molecular absorption at 365 nm
[6]
  form of DNA after renaturation (cross-links): remains in single chain form after renaturation
[6]; pso2 mutant and direct examination of DNA
  functional type (mono/bifunctional): mono functional type
[7]
  photoreactivity compared with 4,5',8-trimethylpsoralen (conclusion): close to that of 4,5'-8-trimethylpsoralen
  photodynamic activity (oxygen dependent) on induction of lethal damages: do not exert on the yeast photodynamic activity
[7]; 5×10^-6 M, survival curves
  activity on cell survival relative to 8-MOP: 5 times
[7]; equimolar 5×10^-6 M
  activity compared with 4,5',8-trimethylpsoralen: activity close to that of 4,5', 8-trimethylpsoralen
DNA [8]
  photoaffinity for DNA in vivo compared with 3-CPs: makedly much high than that of monofunctional furocoumarin 3-CPs
  photoaffinity for DNA in vivo relative to 8-MOP: ~20 times
  photoaffinity in respect to DNA compared with 8-MOP (conclusion): markedly greater than that of 8-MOP
Mitochondrial DNA
  rate of induction of cytoplasmic mutation: greater than 50%
[9]
  His+ reversions rate compared with 3-CPs: less than that observed after the treatment with 3-CPs
  His+ reversions rate compared with 8-MOP and 4,5',8-TMeP: very much less than that observed after treatment with the bifunctional agents 8-MOP and 4,5', 8-TMeP
[10]
  forward mutations as a function of surviving fractions compared with 3-CPs, 8-MOP and 4,5',8-TMeP: markedly less mutagenic than 3-CPs and the bifunctional compounds 8-MOP and 4,5', 8-TMeP
[10]; 5×10^-6 M versus 3-CPs at 5×10^-5 M
  forward mutations as a function of UVA doses compared with 3-CPs: comparable to those obtained with 3-CPs at 5×10^-5 M
Synthesis of DNA
  inhibition capacity (DNA) compared with 3-CPs: much more than 3-CPs
  inhibition capacity (DNA) compared with 8-MOP: slightly more powerful than 8-MOP
Synthesis of RNA
  inhibition capacity (RNA) compared with 3-CPs: much more than 3-CPs
  inhibition capacity (RNA) compared with 8-MOP: slightly more powerful than 8-MOP
[11]; UVA
  LD10 (dose which leaves 10% survive): 540 J/cm2
  considerable photosensitivity in V79 cells: considerable photosensitivity
  relative antiproliferatory effect: markedly more effective than compound 1a; also recorded: compared to 8-MOP, a higher antiproliferatory effect; also recorded: comparable to that of bifunctional furocoumarins
[11]; no radiation
  diminution of cell survival in absence of radiation: no diminution of cell survival
Normal human skin; 10 micrograms/cm2, 2 hours before UVA 5 J/cm2
  erythema at 5 J/cm2: no precocious or delayed erythema was observed
Normal human skin; [15]
  duration of erythema: 18 days
  time of appearance of erythema: 72 h
Normal human skin; 10 micrograms/cm2, UVA 20 J/cm2 through glass plate
  erythema at 20 J/cm2: slight erythema
Normal human skin; UVA 20 J/cm2
  desquamation or local pain: no desquamation or local pain
  systolic pulse of the capillaries at erythematic zones (reflective photoplethysmography): doubling of the systolic pulse
Normal human skin
  erythematogenicity (conclusion): not erythmatogenic in conditions of irradiation customarily used in human therapy; also recorded: very mildly erythmatogenic
Psoriatic plaque [12]; 30 μg/cm2 two hours before UVA
  antipsoriatic action, third patient: complete whitening of the psoriasis
  antipsoriatic action, two of three patients: moderately better than product 1a
  pigmentogenic effect, two of three patients: more pigmentogenic
Psoriatic plaque [12]; 10 treatments of PUVA, total dose 50 J/cm2
  antipsoriatic action of product 1b versus 1a (overall): antipsoriatic action superior to that of product 1a
Psoriatic plaque [12]; 30 micrograms/cm2
  erythema or secondary effect during treatments: no erythema or secondary effect was observed
  hyperpigmentation: hyperpigmentation was found in the two zones, in particular the one treated with product 1b
Psoriatic plaque [12]; [16]
  total UVA dose to complete whitening: 50 J/cm2
  whitening of treated zones: complete whitening of the zones treated
Psoriatic plaque [12]; [17]
  decrease of squamae: slight decrease of the squamae
  reduction of infiltration: tangible reduction of the infiltration
Psoriatic plaque [12]; applied locally
  antipsoriatic activity (conclusion): good antipsoriatic activity; also recorded: best therapeutic results
Psoriatic plaque [13]
  deterioration after end of treatment: practically no deterioration
Psoriatic plaque [13]; three patients, up to 10 J/cm2 per treatment
  antipsoriatic effectiveness compared with 8-methoxypsoralen: more effective than 8-methoxypsoralen
Normal skin
  pigmentogenic properties, 1b versus 1a: superior to those of product 1a; also recorded: more pigmentogenic than product 1a
Normal skin; three normal patients, total UVA doses of 140 J/cm2
  pigmentation of normal skin: Visible pigmentation was observed on three normal patients tested with product 1b in all three cases
[14]
  mutagenicity compared with 3-carbethoxypsoralen (conclusion): less mutagenic than 3-carbethoxypsoralen
Yeast mutant pso2
  photoreactivity on yeast strains: very photoreactive
Yeast mutant pso2; photo-addition
  sensitivity of pso2 mutant compared with wild type: same sensitivity as the wild type

## Cc1cc2c(ccc3c(C)cc(=O)oc32)o1 [4,5'-dimethylangelicine, reference compound]
[7]
  photodynamic activity (oxygen dependent) on induction of lethal damages: comparable

## COc1c2occc2cc2ccc(=O)oc12 [8-methoxypsoralen, reference compound]
[6]
  form of DNA after renaturation (cross-links): cross-linked double strand DNA
[7]
  photodynamic activity (oxygen dependent) on induction of lethal damages: comparable
[11]; UVA
  LD10 (dose which leaves 10% survive): 3800 J/cm2
Psoriatic plaque [13]
  deterioration after end of treatment: rapid deterioration
DNA [2]
  capability of forming cross-links in DNA: capable of forming cross-links in the DNA
[3]
  mutagenic activity and carcinogenesis in animals: high mutagenic activity and carcinogenesis in animals

## CCOC(=O)c1cc2cc3ccoc3cc2oc1=O [3-carbethoxypsoralen, reference compound]
[7]
  photodynamic activity (oxygen dependent) on induction of lethal damages: different
Normal human skin
  erythematogenicity (conclusion): is not
[1]
  carcinogenicity: completely safe from this point of view
psoriasis
  therapeutic activity in patients having psoriasis: having a therapeutic activity in respect to patients having psoriasis
